Patent US9974782B2, “Phosphodiesterase inhibitors and uses thereof” (THE TRUSTEES OF COLUMBIA UNIVERSITY IN THE CITY OF NEW YORK, priority 2008, dated 2018)

Key:
[1] = system: APP/PS1 mice; assay: Radial-arm water maze (spatial working memory); assay type: in vivo, mouse; details: for minimum time needed for a positive effect on spatial working memory: 3 mg/kg
Source text: Next, the effect of treatment with sildenafil was examined on spatial working memory, a type of short-term memory that can be studied with the radial-arm water maze test. […] Mice were required to learn and memorize the location of a hidden platform in one of the arms of a maze with respect to spatial cues. […] However, daily injections of sildenafil for 3 weeks immediately after the 4th acquisition trial ameliorated the behavioural performance of APP/PS1 mice (FIG. 2B).
The effects of one course of 3-week treatment with sildenafil on spatial working memory were next tested using the radial-arm water-maze task. There was a difference between the number of errors made by vehicle-treated APP/PS1 and WT mice (FIG. 3B)^A12. Administration of sildenafil for 3 weeks, 9-12 weeks prior to the testing, reduced the gap between the two groups without affecting performance of the WT animals (FIG. 3B).
Three-month-old APP/PS1 and WT mice were separated into 4 groups: APP/PS1 mice treated with vehicle, APP/PS1 mice treated with PDE inhibitor, WT mice treated with vehicle, and WT mice treated with PDE inhibitor. […] In the remaining experiments, sildenafil was injected via i.p. The drug was administered either acutely or for 1 course of 3 week treatment. For assessment of the short-term effects of sildenafil, the drug was given at a concentration of 3 mg/kg immediately after the training. This dose yields concentrations of ˜2.5 μM cGMP in the hippocampus^A53. For assessment of long-term effects, sildenafil was given daily by i.p. injection at a concentration of 3 mg/kg for 3 weeks and then treatment was stopped for 9-12 weeks prior to behavioral testing. Contextual and cued fear conditioning was performed for 3 days. Radial-arm water-maze (RAWM) was performed for 3 weeks. Then, the animals were sacrificed for electrophysiological recordings. To decide the time of administration of sildenafil in the acute experiments, a series of studies was performed in which the inhibitor was injected i.p. at 5 min before the electric shock or at 5 min before the first acquisition trial with the radial arm water maze. […] Thus, all the behavioral experiments on the acute effects of sildenafil reported in the result section were performed with injection after the training.
This is a type of short-term memory that can be studied with the RAWM test^12. Briefly, the RAWM consisted of a white tank (120 cm diameter) filled with water (24-25° C.) and made opaque by the addition of non-toxic white paint. Within the tank walls were positioned so as to produce six arms, radiating from a central area. Spatial cues were presented on the walls of the testing room. At the end of one of the arms was positioned a clear 10 cm submerged (1.5 cm) platform that remained in the same location for every trial in one day, but was moved about randomly from day to day. On each trial the mouse started the task from a different randomly chosen arm. […] Each trial lasted 1 min and errors were counted each time the mouse entered the wrong arm or needed more than 20 sec to reach the platform. After each error the mouse was pulled back to the start arm for that trial. After 4 consecutive acquisition trials, the mouse was placed in its home cage for 30 min, then returned to the maze and administered a 5th retention trial. Testing was considered completed as the WT mice made the same number of errors at the 4th and 5th trial. The scores for each mouse on the last three days of testing were averaged and used for statistical analysis.

[2] = system: APP/PS1 mice; assay: Contextual and cued fear conditioning; assay type: in vivo, mouse; details: for effect on contextual fear memory in words: APP/PS1 (transgenic) mice
Method: Given that sildenafil reversed LTP deficits in 3-month-old APP/PS1, it was then tested whether the inhibitor reversed the cognitive defects in these animals. As reported above sildenafil offers the advantage of crossing the BBB and therefore it can be easily utilized in behavioural experiments. Three-month-old mice were divided into 4 groups: APP/PS1 with sildenafil, APP/PS1 with vehicle, WT with sildenafil and WT with vehicle. Sildenafil and vehicle control solutions were administered i.p. at a concentration of 3 mg/kg. This concentration was chosen based on previous studies showing that these amounts of sildenafil raise hippocampal cGMP levels and improve memory in aged rats^A6 and mice^A7 independent of vascular effects^A6. The effects of acute administration of sildenafil was first examined on fear-conditioning learning, a type of learning that is impaired in several AD mouse models^A14 and depends on hippocampus and amygdala. The hippocampus is indispensable for contextual fear conditioning^A15, a form of associative learning in which mice must associate a neutral stimulus with an aversive one. Mice were trained to associate neutral stimuli with an aversive one. They were placed in a new context (fear conditioning box), exposed to a white noise cue (CS) paired with a mild foot shock (US), and injected with sildenafil immediately after the training. Fear learning was assessed twenty-four hours later by measuring freezing behaviour—the absence of all movement except for that necessitated by breathing—in response to representation of the context or of the auditory cue within a completely different context. No difference was found in the freezing behaviour among the four groups of mice before the training phase (FIG. 2A). Twenty-four hours later, a decrease in the freezing behaviour of vehicle-treated APP/PS1 mice compared with that of vehicle-treated WT littermates in the analysis of the contextual learning was observed (FIG. 2A). […] Fear conditioning, a hippocampus-independent task A^15, was next tested and no difference in freezing among the 4 groups was found, as APP/PS1 mice are known to have a selective hippocampus-dependent impairment in associative learning^A14.
Sildenafil was tested to determine whether a brief course of treatment can provide long term benefits. The PDE5 inhibitor was examined to see if it maintains its protective effect against synaptic dysfunction and memory loss. In these experiments, both APP/PS1 and WT mice of 3 months of age were injected intraperitoneally with 3 mg/kg/day sildenafil for 3 weeks, then the treatment was stopped for 9-12 weeks prior to testing. The mice were next subjected to training for contextual learning. […] There were no differences between the 4 groups in the cued conditioning test.
Three-month-old APP/PS1 and WT mice were separated into 4 groups: APP/PS1 mice treated with vehicle, APP/PS1 mice treated with PDE inhibitor, WT mice treated with vehicle, and WT mice treated with PDE inhibitor. […] In the remaining experiments, sildenafil was injected via i.p. The drug was administered either acutely or for 1 course of 3 week treatment. For assessment of the short-term effects of sildenafil, the drug was given at a concentration of 3 mg/kg immediately after the training. This dose yields concentrations of ˜2.5 μM cGMP in the hippocampus^A53. For assessment of long-term effects, sildenafil was given daily by i.p. injection at a concentration of 3 mg/kg for 3 weeks and then treatment was stopped for 9-12 weeks prior to behavioral testing. Contextual and cued fear conditioning was performed for 3 days. Radial-arm water-maze (RAWM) was performed for 3 weeks. Then, the animals were sacrificed for electrophysiological recordings. To decide the time of administration of sildenafil in the acute experiments, a series of studies was performed in which the inhibitor was injected i.p. at 5 min before the electric shock or at 5 min before the first acquisition trial with the radial arm water maze. […]

[3] = treated at 3 months, tested at 6-8 months
[4] = 3 month-old APP/PS1, 3 mg/Kg i.p.
[5] = APP/PS1, 3 mg/Kg i.p. for 3 weeks at 3 months, tested 9-12 weeks later
[6] = WT, 3 mg/Kg i.p. for 3 weeks at 3 months, tested 9-12 weeks later
[7] = 3 month-old WT, sildenafil 3 mg/Kg or tadalafil 1 mg/Kg i.p.

In the case of `COc1ccc(CNc2c(CO)cnc3c(C4CC4)cc(C#N)cc23)cc1Cl` [YF012403, 4-(3-chloro-4-methoxybenzylamino)-8-cyclopropyl-3-(hydroxymethyl)-quinoline-6-carbonitrile], the “effect on spatial working memory (RAWM) in words” value ([1]; APP/PS1 (transgenic) mice) is reported as “attenuated” and the “effect on contextual fear memory in words” value [2] is reported as “attenuated”.

In the case of `CCCc1nn(C)c2c(=O)[nH]c(-c3cc(S(=O)(=O)N4CCN(C)CC4)ccc3OCC)nc12` [sildenafil, 5-[2-ethoxy-5-(4-methyl-1-piperazinylsulphonyl)phenyl]-1-methyl-3-n-propyl-1,6-dihydro-7H-pyrazolo[4,3-d]pyrimidin-7-one], the “minimum time needed for a positive effect on spatial working memory” value [1, 3] is reported as 2 weeks, the “minimum time needed for a positive effect on spatial working memory” value ([1]; 3-month-old APP/PS1) is reported as 2 weeks and the “minimum concentration needed to improve spatial working memory” value ([1]; 3-month-old APP/PS1, for 3 weeks) is reported as 3 mg/kg. The “RAWM errors, recall trial R” value [1, 4] was 3.57±0.31 errors, the “RAWM errors, trial A1” value [1, 4] was 5.87±0.22 errors and the “RAWM errors, trial A4” value [1, 4] was 3.39±0.39 errors. The “RAWM errors, recall trial R” value ([1]; 3 month-old WT, 3 mg/Kg i.p.) was 1.9±0.35 errors, the “RAWM errors, trial A1” value ([1]; 3 month-old WT, 3 mg/Kg i.p.) was 5.5±0.23 errors and the “RAWM errors, trial A4” value ([1]; 3 month-old WT, 3 mg/Kg i.p.) was 1.5±0.21 errors. For the same compound, the “RAWM errors, recall trial R” value [1, 5] was 3±0.75 errors, the “RAWM errors, trial A1” value [1, 5] was 6.16±0.39 errors and the “RAWM errors, trial A2” value [1, 5] was 4.16±0.53 errors. The “RAWM errors, trial A3” value [1, 5] was 3.5±0.41 errors, the “RAWM errors, trial A4” value [1, 5] was 2.83±0.61 errors and the “RAWM errors in the retention trial” value ([1]; APP/PS1, injected i.p. 5 min before the first acquisition trial) was roughly 5 errors. The “RAWM errors, recall trial R” value [1, 6] was 2.33±0.36 errors, the “RAWM errors, trial A1” value [1, 6] was 6±0.29 errors and the “RAWM errors, trial A2” value [1, 6] was 3.22±0.56 errors. For the same compound, the “RAWM errors, trial A3” value [1, 6] was 2.5±0.36 errors, the “RAWM errors, trial A4” value [1, 6] was 1.83±0.16 errors and the “minimum concentration needed to improve spatial working memory” value [1, 3] was 3 mg/kg. The “minimum time needed for a positive effect on contextual fear memory” value ([2]; 3 mg/kg, treated at 3 months, tested at 6-8 months) was 2 weeks, the “minimum concentration needed to improve contextual fear memory” value ([2]; 3-month-old APP/PS1, acute) was 3 mg/kg and the “contextual freezing time as % of vehicle-treated WT mice” value ([2]; 3 month-old APP/PS1, sildenafil 3 mg/Kg i.p. after training, 24 hrs) was “about 87%”. For the same compound, the contextual freezing time ([2]; 3 month-old APP/PS1, sildenafil 3 mg/Kg or tadalafil 1 mg/Kg i.p., 24 hrs after training) was 28.95±3.94%, the “contextual freezing as % of vehicle-treated WT mice” value (“contextual freezing as %” for short) [2, 7] was “about 89%” and the contextual freezing time [2, 7] was 30.1±3.11%. The “effect on cued conditioning in words” value ([2]; 3 months old APP/PS1 and WT, 3 mg/kg) was “do not affect freezing during cued conditioning”, the “effect on contextual fear memory in words” value [2] was “complete” and the “contextual freezing as %” value [2, 5] was roughly 97%. The contextual freezing time [2, 5] was 30.32±1.98%, the “freezing time as % of vehicle-treated APP/PS1 mice” value ([2]; APP/PS1, injected i.p. 5 min before the electric shock) was roughly 90% and the “contextual freezing as %” value [2, 6] was roughly 104%. The contextual freezing time [2, 6] was 32.41±1.88% and the “minimum concentration needed to improve contextual fear memory” value [2, 3] was 3 mg/kg.
